molecular target: wild type c-kit (Homo sapiens (Human), UniProt P10721); assay: PathScan phospho c-kit (Tyr719) sandwich ELISA in SCF-stimulated M-07e cells (pKIT assay); type: cell-based; conditions: ELISA assay (values not marked *)
In short: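 Serum- and GM-CSF-starved M-07e cells (4 h) pretreated 60 min at 37 °C with an 8-point compound series in duplicate (0.25% DMSO), then stimulated with human SCF (500 ng/mL stock) 10 min at room temperature. Lysate c-kit Tyr719 phosphorylation quantified by sandwich ELISA with TMB read-out; IC50 from 4-parameter logistic fit.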

Chain of wild type c-kit (P10721 26-976): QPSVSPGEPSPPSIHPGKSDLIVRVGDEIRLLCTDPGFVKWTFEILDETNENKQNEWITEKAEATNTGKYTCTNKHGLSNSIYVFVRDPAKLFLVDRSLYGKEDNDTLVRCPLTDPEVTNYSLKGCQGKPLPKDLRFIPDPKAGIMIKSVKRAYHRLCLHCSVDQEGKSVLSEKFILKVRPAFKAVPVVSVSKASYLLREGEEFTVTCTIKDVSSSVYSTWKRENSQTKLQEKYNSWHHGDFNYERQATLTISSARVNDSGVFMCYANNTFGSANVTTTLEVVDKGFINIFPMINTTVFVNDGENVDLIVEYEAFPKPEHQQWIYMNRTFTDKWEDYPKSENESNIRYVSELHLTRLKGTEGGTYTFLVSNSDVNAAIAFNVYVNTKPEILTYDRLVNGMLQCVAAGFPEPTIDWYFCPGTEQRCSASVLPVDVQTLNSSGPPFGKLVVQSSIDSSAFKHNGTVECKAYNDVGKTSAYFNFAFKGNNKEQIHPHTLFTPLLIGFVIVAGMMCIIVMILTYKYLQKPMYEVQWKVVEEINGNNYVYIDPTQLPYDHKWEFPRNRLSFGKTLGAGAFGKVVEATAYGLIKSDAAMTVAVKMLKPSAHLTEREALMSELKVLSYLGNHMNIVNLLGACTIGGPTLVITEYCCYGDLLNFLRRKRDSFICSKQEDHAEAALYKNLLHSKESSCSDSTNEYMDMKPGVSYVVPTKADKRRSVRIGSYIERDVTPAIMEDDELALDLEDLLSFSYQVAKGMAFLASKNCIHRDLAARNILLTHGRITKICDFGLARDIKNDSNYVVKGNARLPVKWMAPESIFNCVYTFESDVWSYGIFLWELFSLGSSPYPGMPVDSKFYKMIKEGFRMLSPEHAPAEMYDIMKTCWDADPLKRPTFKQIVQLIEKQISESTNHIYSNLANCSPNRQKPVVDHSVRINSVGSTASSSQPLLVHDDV

Structure (SMILES)	IC50 [nM]
CC(C)(O)Cn1cc(-c2ccn3ncc(C(=O)Nc4cc(-n5nnc(C6CC6)n5)ccc4Cl)c3c2)cn1 [Example 216, N-(2-chloro-5-(5-cyclopropyl-2H-tetrazol-2-yl)phenyl)-5-(1-(2-hydroxy-2-methylpropyl)-1H-pyrazol-4-yl)pyrazolo[1,5-a]pyridine-3-carboxamide]	2.4
COC(=O)N1CC(c2cnn(-c3ccc(C)c(NC(=O)c4cnn5ccc(N6CCN(C7COC7)CC6)cc45)c3)n2)C1 [Example 83, methyl 3-(2-(4-methyl-3-(5-(4-(oxetan-3-yl)piperazin-1-yl)pyrazolo[1,5-a]pyridine-3-carboxamido)phenyl)-2H-1,2,3-triazol-4-yl)azetidine-1-carboxylate]	50.4
Cc1cc(C)c(-c2nnn(C3CC(F)(F)C3)n2)cc1NC(=O)c1cnn2ccc(N3CCOCC3)cc12 [Example 156, N-(5-(2-(3,3-difluorocyclobutyl)-2H-tetrazol-5-yl)-2,4-dimethylphenyl)-5-morpholinopyrazolo[1,5-a]pyridine-3-carboxamide]	22.1
Cn1nnc(-c2ccc(F)c(NC(=O)c3cnn4ccc(-c5cnn(CC(C)(C)O)c5)cc34)c2)n1 [Example 213, N-(2-fluoro-5-(2-methyl-2H-tetrazol-5-yl)phenyl)-5-(1-(2-hydroxy-2-methylpropyl)-1H-pyrazol-4-yl)pyrazolo[1,5-a]pyridine-3-carboxamide]	16
Cc1nn([C@H](C)[C@H](C)O)cc1-c1ccn2ncc(C(=O)Nc3cc(-c4nnn(C5CC5)n4)c(F)cc3Cl)c2c1 (single isomer, unassigned) [Example 289, N-(2-chloro-5-(2-cyclopropyl-2H-tetrazol-5-yl)-4-fluorophenyl)-5-(1-((2R,3S)-3-hydroxybutan-2-yl)-3-methyl-1H-pyrazol-4-yl)pyrazolo[1,5-a]pyridine-3-carboxamide or N-(2-chloro-5-(2-cyclopropyl-2H-tetrazol-5-yl)-4-fluorophenyl)-5-(1-((2S,3R)-3-hydroxybutan-2-yl)-3-methyl-1H-pyrazol-4-yl)pyrazolo[1,5-a]pyridine-3-carboxamide]	0.6
CNc1ccn2ncc(C(=O)Nc3cc(-c4nnn(C5CN(C(=O)OC)C5)n4)ccc3C)c2c1 [Example 133, methyl 3-(5-(4-methyl-3-(5-(methylamino)pyrazolo[1,5-a]pyridine-3-carboxamido)phenyl)-2H-tetrazol-2-yl)azetidine-1-carboxylate]	34.5
Cc1cc(Cl)c(NC(=O)c2cnn3ccc(N4CCOCC4)cc23)cc1-c1nnn(C2CC(F)(F)C2)n1 [Example 170, N-(2-chloro-5-(2-(3,3-difluorocyclobutyl)-2H-tetrazol-5-yl)-4-methylphenyl)-5-morpholinopyrazolo[1,5-a]pyridine-3-carboxamide]	6.3
COCCNc1ccn2ncc(C(=O)Nc3cc(-c4nnn(C[C@H]5CC5(F)F)n4)ccc3C)c2c1 (single isomer, unassigned) [Example 124, (R)-N-(5-(2-((2,2-difluorocyclopropyl)methyl)-2H-tetrazol-5-yl)-2-methylphenyl)-5-((2-methoxyethyl)amino)pyrazolo[1,5-a]pyridine-3-carboxamide or (S)-N-(5-(2-((2,2-difluorocyclopropyl)methyl)-2H-tetrazol-5-yl)-2-methylphenyl)-5-((2-methoxyethyl)amino)pyrazolo[1,5-a]pyridine-3-carboxamide]	1.8
CCOC(=O)N1CC(n2nnc(-c3ccc(C)c(NC(=O)c4cnn5ccc(N6CCN(C)CC6)cc45)c3)n2)C1 [Example 76, ethyl 3-(5-(4-methyl-3-(5-(4-methylpiperazin-1-yl)pyrazolo[1,5-a]pyridine-3-carboxamido)phenyl)-2H-tetrazol-2-yl)azetidine-1-carboxylate]	55.6
O=C(Nc1cc(-c2nnn(CC3CC(F)(F)C3)n2)ccc1Cl)c1cnn2ccccc12 [Example 19, N-(2-chloro-5-(2-((3,3-difluorocyclobutyl)methyl)-2H-tetrazol-5-yl)phenyl)pyrazolo[1,5-a]pyridine-3-carboxamide]	7.5
Cc1cc(F)c(NC(=O)c2cnn3ccc(-c4cnn(CC(C)(C)O)c4)cc23)cc1-c1nnn(C2CC2)n1 [Example 215, N-(5-(2-cyclopropyl-2H-tetrazol-5-yl)-2-fluoro-4-methylphenyl)-5-(1-(2-hydroxy-2-methylpropyl)-1H-pyrazol-4-yl)pyrazolo[1,5-a]pyridine-3-carboxamide]	23.7
COCCNc1ccn2ncc(C(=O)Nc3cc(-n4ncc(C5CN(C(=O)OC)C5)n4)ccc3Cl)c2c1 [Example 111, methyl 3-(2-(4-chloro-3-(5-((2-methoxyethyl)amino)pyrazolo[1,5-a]pyridine-3-carboxamido)phenyl)-2H-1,2,3-triazol-4-yl)azetidine-1-carboxylate]	11.8
COC(=O)N1CC(n2nnc(-c3ccc(Cl)c(NC(=O)c4cnn5ccccc45)c3)n2)C1 [Example 192]	10.6

Now from value to molecule:

IC50 [nM]	Structure (SMILES)
0.5	Cc1cc(F)c(-c2nnn(C3CC3)n2)cc1NC(=O)c1cnn2ccc(-c3cn(C[C@H](C)O)nc3C)cc12 [Example 256, (S)-N-(5-(2-cyclopropyl-2H-tetrazol-5-yl)-4-fluoro-2-methylphenyl)-5-(1-(2-hydroxypropyl)-3-methyl-1H-pyrazol-4-yl)pyrazolo[1,5-a]pyridine-3-carboxamide]
3.4	COCCNc1ccn2ncc(C(=O)Nc3cc(-c4nnn(C5CC6(CCC6)C5)n4)ccc3C)c2c1 [Example 150, 5-((2-methoxyethyl)amino)-N-(2-methyl-5-(2-(spiro[3.3]heptan-2-yl)-2H-tetrazol-5-yl)phenyl)pyrazolo[1,5-a]pyridine-3-carboxamide]
8.6	Cc1ccc(-c2nnn(C3CC(F)(F)C3)n2)cc1NC(=O)c1cnn2ccc(N3CC[C@@](C)(O)C3)cc12 (single isomer, unassigned) [Example 86, (S)—N-(5-(2-(3,3-difluorocyclobutyl)-2H-tetrazol-5-yl)-2-methylphenyl)-5-(3-hydroxy-3-methylpyrrolidin-1-yl)pyrazolo[1,5-a]pyridine-3-carboxamide or (R)—N-(5-(2-(3,3-difluorocyclobutyl)-2H-tetrazol-5-yl)-2-methylphenyl)-5-(3-hydroxy-3-methylpyrrolidin-1-yl)pyrazolo[1,5-a]pyridine-3-carboxamide]
4.2	O=C(Nc1cc(-c2nnn(CC3CC3)n2)ccc1Cl)c1cnn2ccccc12 [Example 15, N-(2-chloro-5-(2-(cyclopropylmethyl)-2H-tetrazol-5-yl)phenyl)pyrazolo[1,5-a]pyridine-3-carboxamide]
8.7	O=C(Nc1cc(-c2nnn(C3CN(CC(F)(F)F)C3)n2)ccc1Cl)c1cnn2ccccc12 [Example 195, N-(2-chloro-5-(2-(1-(2,2,2-trifluoroethyl)azetidin-3-yl)-2H-tetrazol-5-yl)phenyl)pyrazolo[1,5-a]pyridine-3-carboxamide]
22.7	COC(=O)N1CC(n2nnc(-c3ccc(C)c(NC(=O)c4cnn5ccc(N6CCC(F)(F)C6)cc45)c3)n2)C1 [Example 67, methyl 3-(5-(3-(5-(3,3-difluoropyrrolidin-1-yl)pyrazolo[1,5-a]pyridine-3-carboxamido)-4-methylphenyl)-2H-tetrazol-2-yl)azetidine-1-carboxylate]
10.5	O=C(Nc1cc(-c2nnn(C3CC(F)(F)C3)n2)c(F)cc1Cl)c1cnn2ccc(N3CCOCC3)cc12 [Example 63, N-(2-chloro-5-(2-(3,3-difluorocyclobutyl)-2H-tetrazol-5-yl)-4-fluorophenyl)-5-morpholinopyrazolo[1,5-a]pyridine-3-carboxamide]
0.7	CCn1nnc(-c2cc(NC(=O)c3cnn4ccc(-c5c(C)nn(CC(C)(C)O)c5C)cc34)c(C)cc2F)n1 [Example 246, N-(5-(2-ethyl-2H-tetrazol-5-yl)-4-fluoro-2-methylphenyl)-5-(1-(2-hydroxy-2-methylpropyl)-3,5-dimethyl-1H-pyrazol-4-yl)pyrazolo[1,5-a]pyridine-3-carboxamide]
0.4	Cc1nn([C@@H](C)[C@H](C)O)cc1-c1ccn2ncc(C(=O)Nc3cc(-c4nnn(C5CC5)n4)c(F)cc3Cl)c2c1 (single isomer, unassigned) [Example 288, N-(2-chloro-5-(2-cyclopropyl-2H-tetrazol-5-yl)-4-fluorophenyl)-5-(1-((2S,3S)-3-hydroxybutan-2-yl)-3-methyl-1H-pyrazol-4-yl)pyrazolo[1,5-a]pyridine-3-carboxamide or N-(2-chloro-5-(2-cyclopropyl-2H-tetrazol-5-yl)-4-fluorophenyl)-5-(1-((2R,3R)-3-hydroxybutan-2-yl)-3-methyl-1H-pyrazol-4-yl)pyrazolo[1,5-a]pyridine-3-carboxamide]
34.7	CCNc1ccn2ncc(C(=O)Nc3cc(-c4nnn(C5CN(C(=O)OCC)C5)n4)ccc3C)c2c1 [Example 130, ethyl 3-(5-(3-(5-(ethylamino)pyrazolo[1,5-a]pyridine-3-carboxamido)-4-methylphenyl)-2H-tetrazol-2-yl)azetidine-1-carboxylate]
41.3	COC(=O)N1CC(n2nnc(-c3ccc(C)c(NC(=O)c4cnn5ccccc45)c3)n2)C1 [Example 191, methyl 3-(5-(4-methyl-3-(pyrazolo[1,5-a]pyridine-3-carboxamido)phenyl)-2H-tetrazol-2-yl)azetidine-1-carboxylate]
8.5	Cc1cc(C)c(-c2nnn(CCC(C)(O)C(F)(F)F)n2)cc1NC(=O)c1cnn2ccccc12 (centres unmarked) [Example 36, N-(2,4-dimethyl-5-(2-(4,4,4-trifluoro-3-hydroxy-3-methylbutyl)-2H-tetrazol-5-yl)phenyl)pyrazolo[1,5-a]pyridine-3-carboxamide]
50.9	Cc1cc(C)c(-c2nnn(CC34COC(C3)C4)n2)cc1NC(=O)c1cnn2ccccc12 [Example 20, N-(5-(2-((2-oxabicyclo[2.1.1]hexan-4-yl)methyl)-2H-tetrazol-5-yl)-2,4-dimethylphenyl)pyrazolo[1,5-a]pyridine-3-carboxamide]

From patent US20240262826A1, “WILD TYPE KIT INHIBITORS” (Blueprint Medicines Corporation, priority 2022, published 2024)
